According to PMC9505538, “P-Glycoprotein (MDR1/ABCB1) Restricts Brain Accumulation of the Novel EGFR Inhibitor EAI045 and Oral Elacridar Coadministration Enhances Its Brain Accumulation and Oral Exposure” (Pharmaceuticals, 2022):

Key:
human ABCB1 = molecular target: T1, human ABCB1 (Homo sapiens, UniProt P08183); experiment: Transepithelial transport of EAI045, MDCK-II cells transduced with human ABCB1; format: in vitro ADME; details: for efflux ratio r (relative transport ratio): EAI045 5 μM
T1 construct: expressed in transfected cells; host or cells: MDCK-II cells, stably transduced, generated in the authors' institute
T1 sequence (P08183 whole entry): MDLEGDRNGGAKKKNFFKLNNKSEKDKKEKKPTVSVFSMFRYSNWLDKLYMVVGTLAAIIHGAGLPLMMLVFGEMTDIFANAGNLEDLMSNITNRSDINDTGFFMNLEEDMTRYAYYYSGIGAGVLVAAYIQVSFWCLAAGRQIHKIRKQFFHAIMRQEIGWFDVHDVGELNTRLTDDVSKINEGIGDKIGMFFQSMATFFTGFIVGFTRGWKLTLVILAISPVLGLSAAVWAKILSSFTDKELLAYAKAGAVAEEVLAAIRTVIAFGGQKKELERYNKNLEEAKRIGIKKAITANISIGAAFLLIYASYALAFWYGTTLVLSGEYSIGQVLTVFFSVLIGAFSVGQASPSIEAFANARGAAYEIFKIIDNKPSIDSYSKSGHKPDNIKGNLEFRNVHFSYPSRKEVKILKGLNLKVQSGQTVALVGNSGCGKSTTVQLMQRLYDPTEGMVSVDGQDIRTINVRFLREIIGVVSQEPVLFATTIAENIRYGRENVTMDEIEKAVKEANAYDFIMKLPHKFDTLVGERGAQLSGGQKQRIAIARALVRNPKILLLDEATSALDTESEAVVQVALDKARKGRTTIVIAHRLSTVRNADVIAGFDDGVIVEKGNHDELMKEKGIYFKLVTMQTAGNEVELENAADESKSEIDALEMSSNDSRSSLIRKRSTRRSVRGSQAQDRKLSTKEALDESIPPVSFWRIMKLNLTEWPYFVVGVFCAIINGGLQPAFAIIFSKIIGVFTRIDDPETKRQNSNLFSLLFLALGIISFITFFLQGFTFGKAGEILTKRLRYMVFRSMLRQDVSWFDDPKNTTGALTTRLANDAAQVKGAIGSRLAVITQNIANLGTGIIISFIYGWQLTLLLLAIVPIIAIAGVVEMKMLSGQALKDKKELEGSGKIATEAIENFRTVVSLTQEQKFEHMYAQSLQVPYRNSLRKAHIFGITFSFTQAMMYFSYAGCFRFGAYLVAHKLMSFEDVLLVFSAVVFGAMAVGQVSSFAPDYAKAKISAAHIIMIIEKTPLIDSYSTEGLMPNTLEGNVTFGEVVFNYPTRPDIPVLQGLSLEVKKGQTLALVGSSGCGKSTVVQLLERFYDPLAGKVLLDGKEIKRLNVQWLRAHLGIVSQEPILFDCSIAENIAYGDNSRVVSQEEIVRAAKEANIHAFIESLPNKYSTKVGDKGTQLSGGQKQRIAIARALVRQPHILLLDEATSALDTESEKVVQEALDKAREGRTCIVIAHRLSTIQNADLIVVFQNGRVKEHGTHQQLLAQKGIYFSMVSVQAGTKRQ
Description: Transport of EAI045 (5 μM) across epithelia was tested using cell layers of Madin–Darby Canine Kidney (MDCK-II) cells and derived clones expressing hABCB1, hABCG2, or mAbcg2 cDNA. […] In cells overexpressing hABCB1, there was clear transport of EAI045 in the apical direction (r = 5.5, Figure 1C). […] To evaluate the interaction between hABCG2 and mAbcg2 and EAI045, zosuquidar (5 μM) was added to inhibit any endogenous canine ABCB1. In cells overexpressing hABCG2, the BA transport of EAI045 was somewhat increased relative to the AB transport, resulting in an efflux ratio of 1.4 (Figure 1E).
Figure 1 In vitro transepithelial transport of EAI045 (5 μM) using MCDK-II parental cells (A,B) or transduced with human ABCB1 (C,D), human ABCG2 (E,F), or murine Abcg2 (G,H) cDNA. At t = 0 EAI045 was added in the donor compartment (either apical or basolateral). At 1, 2, and 4 h EAI045 was quantified in the acceptor compartment and the cumulative total transported amount per well was plotted (n = 3). Zosuquidar (5 μM) was added to inhibit the human and/or the endogenous ABCB1, while Ko143 (5 μM) was added to inhibit the human or murine ABCG2. r, relative transport ratio. […] Points, mean; bars, SD. TEXT PRINTED IN THE PICTURE: (A) no label printed: Parental: r = 1.7 | (B) no label printed: Parental + Zos.: r = 1.1 | (C) no label printed: hABCB1: r = 5.5 | (D) no label printed: hABCB1 + Zos.: r = 1.3 | (E) no label printed: hABCG2 + Zos.: r = 1.4 | (F) no label printed: hABCG2 + Zos. + Ko143: r = 1.1 | (G) no label printed: mAbcg2 + Zos.: r = 1.8 | (H) no label printed: mAbcg2 + Zos. + Ko143: r = 1.4
Madin–Darby Canine Kidney (MDCK-II) cells (ECACC 00062107) stably transduced with human (h) ABCB1, hABCG2, or mouse (m) Abcg2 cDNA were generated in our institute between 1998 and 2005. […] In short, cells were allowed to grow an intact monolayer in 3 days, which was monitored with transepithelial electrical resistance (TEER) measurements, both before and after the transport phase. […] Proper functionality of these cell lines was monitored by continual testing with a variety of drug substrates.

[1] = system: lung cancer driven by EGFR(L858R/T790M); details: cited from earlier work

O=C(Nc1nccs1)C(c1cc(F)ccc1O)N1Cc2ccccc2C1=O (centres unmarked) [EAI045]
efflux ratio r (relative transport ratio) (human ABCB1; hABCB1 + zosuquidar 5 μM): 1.3 | efflux ratio r (relative transport ratio) (human ABCB1; hABCB1, no inhibitor): 5.5 | transport substrate of hABCB1 (human ABCB1; in vitro): good transport substrate | effect in L858R/T790M mutant mice, combination treatment ([1]; EAI045 combined with cetuximab): marked tumor regressions | effect in L858R/T790M mutant mice, agent alone ([1]; single agent): very modest effect
